Like-named read-outs stand apart in the source and are kept apart here.
Legend:
coronary artery = assay: Test for coronary dilating action (intracoronary administration, coronary blood flow in anaesthetized dogs); type: in vivo; details: 10 μg./dog directly into the coronary artery, potency of adenosine taken as unity
Method: Each of dogs weighing 7 to 17 kilograms was anaesthetized with pentobarbital sodium salt (30 mg./kg., intravenously) and under supportive respiration, a left thoractomy was performed at the fifth interspace.
The heart of each animal was exposed and perfused with the blood guided from the animal's own left carotid artery to the left coronary artery circumflex through a polyethylene catheter. The coronary blood flow was measured with an electromagnetic flowmeter interposed in the external phase of the circuitry.
Each of the test compounds was administered directly into the coronary artery through the polyethylene catheter at a dose of 10 μg./dog. The potency of each compound was expressed with the potency of adenosine being taken as unity.

rat platelets = assay: Test for the action to inhibit the aggregation of rat platelets caused by adenosine-5'-diphosphate (method of Born and Cross); type: cell-based; details: read-out: Inhibitory action (%)
From the text: Test for the action to inhibit the aggregation of rat platelets caused by adenosine-5'-diphosphate

[1] = rat platelet-rich plasma, ADP-induced aggregation, concentration 15 μg/ml
[2] = rat platelet-rich plasma, ADP-induced aggregation, concentration 74 μg/ml
[3] = rat platelet-rich plasma, ADP-induced aggregation, concentration 370 μg/ml

| SMILES | Maximum coronary flow (coronary artery) | inhibition at 15 µg/mL (rat platelets; [1]) | inhibition at 74 µg/mL (rat platelets; [2]) | inhibition at 370 µg/mL (rat platelets; [3]) | inhibition at 15 µg/mL (rat platelets; Rattus norvegicus, Platelet) | inhibition at 74 µg/mL (rat platelets; Rattus norvegicus, Platelet) | inhibition at 370 µg/mL (rat platelets; Rattus norvegicus, Platelet) |
| --- | --- | --- | --- | --- | --- | --- | --- |
| Nc1nc(N)c2ncn([C@@H]3O[C@H](CO)[C@@H](O)[C@H]3O)c2n1 [2,6-Diaminonebularine, 2,6-diaminonebularine] | 0.50 | 0% | 0% | 0% |  |  |  |
| Nc1ncnc2c1ncn2[C@@H]1O[C@H](CO)[C@@H](O)[C@H]1O [Adenosine] | 1.00 |  |  |  | 0% | 0% | 0% |
| Nc1nc(NC2CCCCC2)nc2c1ncn2[C@@H]1O[C@H](CO)[C@@H](O)[C@H]1O [N^2 -Cyclohexyl-2,6-diaminonebularine, N^2-cyclohexyl-2,6-diaminonebularine] | 2.20 | -32% | -60% | -95% |  |  |  |
| CCNc1nc(N)c2ncn([C@@H]3O[C@H](CO)[C@@H](O)[C@H]3O)c2n1 [N^2 -Ethyl-2,6-diaminonebularine, N^2-ethyl-2,6-diaminonebularine] | 0.91 | -11% | -21% | -40% |  |  |  |
| Nc1nc(Nc2ccccc2)nc2c1ncn2[C@@H]1O[C@H](CO)[C@@H](O)[C@H]1O [N^2 -Phenyl-2,6-diaminonebularine, N^2-phenyl-2,6-diaminonebularine] | 6.75 | -38% | -52% | -85% |  |  |  |
| COc1ccc(Nc2nc(N)c3ncn([C@@H]4O[C@H](CO)[C@@H](O)[C@H]4O)c3n2)cc1 [N^2-(p-methoxyphenyl)-2,6-diaminonebularine] | 2.37 |  |  |  |  |  |  |

Reference: patent US3936439A, “2,6-Diaminonebularine derivatives” (Takeda Chemical Industries, Ltd., priority 1972, dated 1976)
